Measurements from patent US20240277697A1, “METHODS OF TREATING OR PREVENTING CONDITIONS ASSOCIATED WITH OPIATE WITHDRAWAL OR OPIATE RELAPSE” (Proniras Corporation, priority 2021, published 2024).
Several values for one entry are separate records, joined by “and”; a condition that tells them apart may be missing. Equal entries are not always repeated.

What was measured:
Format in all cases: in vivo
[1] = test system: oxycodone withdrawal in mice; test: Oxycodone-precipitated (naloxone) withdrawal in mice; conditions: mice chronically administered oxycodone
Description: (§1) Statistical analyses. All statistical analyses were performed using Prism 7 (GraphPad Software, La Jolla, CA, USA). Data were analyzed with analysis of variance (ANOVA) followed by the Tukey test for multiple comparisons when appropriate. To determine whether treatment with tezampanel affected oxycodone withdrawal, results with its dosage groups (i.e., chronic oxycodone+tezampanel) were compared to the chronic oxycodone+vehicle treatment group. To determine if tezampanel exerted effects by itself in non-dependent mice, results with the chronic saline+10 mg/kg tezampanel group were compared to the chronic saline+vehicle group. Student's T tests were used for analyzing locomotor activity results. Statistical significance was inferred for all tests when p<0.05.
FIGS. 3A-3D show total withdrawal signs, paw tremors, jumps, and percent body weight loss, respectively. ANOVA results indicated statistically significant total number of signs [F(5,42)=33.78; p<0.0001] (FIG. 3A), paw tremors [F(5,42)=10.85; p<0.0001] (FIG. 3B), jumps [F (5, 42)=22.77; p<0.0001] (FIG. 3C) and loss of body weight [F (5, 42)=4.694; p=0.0017] (FIG. 3D).

Long-Evans hooded rats = test: Oxycodone prime-induced reinstatement of extinguished oxycodone-reinforced lever pressing in rats; conditions: for mean (S.E.M.) active lever presses during reinstatement test session: 0.1 mg/kg s.c. oxycodone prime, vehicle 35.42
Description: Tezampanel was tested for its ability to reduce prime-induced reinstatement of extinguished, oxycodone-reinforced lever pressing in rats. Tezampanel doses of 0 (vehicle), 3, and 10 mg/kg were solubilized in a sterile water vehicle and administered i.p. 30 min prior to testing.
Adult male Long-Evans hooded rats (Envigo, Indianapolis, IN) weighing 275-300 g upon delivery were used. When not in testing, rats were individually housed in standard plastic rodent cages in a temperature-controlled (22° C.), AAALAC-accredited facility in which they had ad libitum access to water. The rats were allowed ad libitum rat chow for at least one week prior to the commencement of training, after which they were maintained at 320 g by controlled feedings. The rats were maintained on a 12-h/12-h reversed light-dark cycle (0600-1800 lights off) for the duration of the experiment, and they were trained and tested during the dark segment of this cycle.
Oxycodone self-administration training sessions were conducted five days per week (M-F) for 3 h daily. […] For the duration of the infusion, the tone sounded, and the stimulus lights above both levers flashed at 3 Hz.
Self-administration training continued until these criteria had been met: 1) at least 12 self-administration sessions had occurred; 2) at least 15 oxycodone infusions had occurred during each of the last four sessions; 3) at least 125 lifetime oxycodone infusions had been obtained; 4) at least 50 active lever responses on the last three days of self-administration had been emitted; and 5) there were no increasing or decreasing trends in active lever responses during the last three sessions of self-administration, after which extinction training began. Subsequently, twelve 3-h daily (Mon-Sun) extinction sessions were conducted. During extinction sessions, the house light was illuminated, and the levers were extended, but infusions were not administered nor did any other scheduled stimulus change occur (i.e., neither Sonalert® activations nor stimulus light illuminations occurred). Rats were considered eligible for reinstatement testing provided that the mean number of active-lever presses during the last 3 sessions of extinction was lower than the mean number of active-lever presses during the first 3 sessions of extinction.
A six-day incubation period during which rats remained in their home cages followed extinction training. Oxycodone prime reinstatement testing immediately followed this incubation period (i.e., on the seventh day following the 12th day of extinction training). Conditions during prime reinstatement testing were identical to those during extinction except that either 3 or 10 mg/kg Tezampanel or its vehicle was administered 30 min prior to the reinstatement test session. […]

C57BL/6J mice = test: Mouse locomotor activity (photocell activity cages)
Description: Male experimentally naive C57BL/6J mice were placed into individual Omnitech photocell activity cages (28×16.5 cm) 30 min after intraperitoneal (i.p.) administration of either vehicle (n=6) or tezampanel at 10 mg/kg (n=7). Interruptions of the photocell beams (two banks of eight cells each) were then recorded for the next 30 min. Data were expressed as number of photocell interruptions.
as §1

[2] = 10 mg/kg intraperitoneal, naloxone on test day, vs oxycodone+vehicle

With `O=C(O)[C@@H]1C[C@H]2C[C@@H](CCc3nn[nH]n3)CC[C@H]2CN1` [Tezampanel, (3S,4aR,6R,8aR)-6-[2-(1H-tetrazol-5-yl)ethyl]decahydroisoquinoline-3-carboxylic acid] the jumps [1, 2] was “attenuated”, the paw tremors [1, 2] was “attenuated” and the “total number of withdrawal signs” value [1, 2] was “attenuated”. The “withdrawal-induced body weight loss” value ([1]; at the doses tested) was “failed to attenuate”, the “mean (S.E.M.) active lever presses during reinstatement test session” value (Long-Evans hooded rats; 3 mg/kg i.p. 30 min prior) was 15.55 (+3.022) and 15.55 (±3.022) and the “mean (S.E.M.) active lever presses during reinstatement test session” value (Long-Evans hooded rats; 10 mg/kg i.p. 30 min prior) was 13.00 (+2.537) and 13.00 (±2.537). For the same compound, the “reinstated response levels relative to vehicle-control” value (Long-Evans hooded rats; 3 and 10 mg/kg i.p.) was “significantly decreased”, the “reinstatement relative to last extinction session” value (Long-Evans hooded rats; 3 and 10 mg/kg i.p.) was “prevented oxycodone prime injections from eliciting effective reinstatement” and the “observational comments on behaviour” value (C57BL/6J mice; 10 mg/kg dose, mice) was “slowed, unsteady locomotion and low activity rates”. The “No. of Interruptions (±S.E.M.)” value (C57BL/6J mice; 10 mg/kg intraperitoneal, 30 min before, photocell interruptions over 30 min, n=7) was 663.7 ± 87.0 and the “locomotor activity compared to vehicle-treated group” value (C57BL/6J mice; 10 mg/kg intraperitoneal, naive mice, p<0.0001) was “significantly reduced”.
